Consider one compound from US8921373B2, “Compounds having TRPV1 antagonistic activity and uses thereof” (Shionogi & Co., Ltd., priority 2010, dated 2014).

This test has as its target human recombinant TRPV1 (Homo sapiens (Human), UniProt Q8NER1). The experiment in a line: TRPV1 pH-Based Assay (Protocol 2, Ca2+ response in TRPV1/CHO cells, Fura-2). The class given is cell-based. The following applies: TRPV1/CHO cells, pH 5.0-5.1; read-out: IC50 value by the pH-Based Assay. The essentials: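 CHO cells stably expressing human TRPV1, Fura-2 loaded, given compound (1% DMSO in 10× stock) before acid challenge to final pH 5.0-5.1 (3.2 or 3.3 mM H2SO4). 340/380 nm ratio recorded at 0.5 Hz; maximal ratio after agonist addition versus 16-point baseline used as response.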

Chain of human recombinant TRPV1 (Q8NER1 whole entry): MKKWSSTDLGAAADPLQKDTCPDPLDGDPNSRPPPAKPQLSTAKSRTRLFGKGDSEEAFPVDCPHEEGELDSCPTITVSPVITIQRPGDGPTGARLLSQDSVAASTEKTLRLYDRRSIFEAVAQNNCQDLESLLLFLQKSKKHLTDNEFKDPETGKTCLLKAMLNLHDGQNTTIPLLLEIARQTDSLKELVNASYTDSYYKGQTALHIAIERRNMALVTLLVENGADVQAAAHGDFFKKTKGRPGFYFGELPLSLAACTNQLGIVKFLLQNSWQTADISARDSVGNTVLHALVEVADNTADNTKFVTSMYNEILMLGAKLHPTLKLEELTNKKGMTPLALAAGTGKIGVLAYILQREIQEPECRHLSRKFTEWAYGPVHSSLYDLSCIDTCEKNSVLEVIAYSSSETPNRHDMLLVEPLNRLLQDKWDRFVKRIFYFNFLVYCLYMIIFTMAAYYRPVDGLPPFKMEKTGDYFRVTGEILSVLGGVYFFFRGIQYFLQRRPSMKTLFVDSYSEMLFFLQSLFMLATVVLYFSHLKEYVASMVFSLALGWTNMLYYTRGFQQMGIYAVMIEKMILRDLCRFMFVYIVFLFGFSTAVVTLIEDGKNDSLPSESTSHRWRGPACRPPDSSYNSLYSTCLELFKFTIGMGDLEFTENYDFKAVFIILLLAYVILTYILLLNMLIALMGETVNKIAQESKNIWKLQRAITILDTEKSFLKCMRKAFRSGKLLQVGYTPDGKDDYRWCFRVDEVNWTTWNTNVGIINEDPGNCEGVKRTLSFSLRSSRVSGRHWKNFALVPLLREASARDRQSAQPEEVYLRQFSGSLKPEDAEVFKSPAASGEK

A word on the IC50: it is the concentration that gives 50% inhibition. For `Cc1cc(NC(=O)N2CCC(F)(c3ncc(C[C@H](O)CO)cc3F)CC2)ccc1C(F)(F)F` [ACQ, (S)-4-(5-(2,3-dihydroxypropyl)-3-fluoropyridin-2-yl)-4-fluoro-N-(3-methyl-4-(trifluoromethyl)phenyl)piperidine-1-carboxamide], the IC50 is at most 50 nM.
